# Experimental data published in ChEMBL document CHEMBL6178009, “Targeted Degradation of BCL6 Using Novel Bifunctional Degraders: A New Therapeutic Strategy for BCL6-Positive Cancers” (ACS Med Chem Lett, 2025).
# Tests used:
# [1] = biological target: Protein cereblon/B-cell lymphoma 6 protein (Homo sapiens, UniProt P41182+Q96SW2); assay: PROTAC activity at CRBN/N-terminal HiBit-tagged BCL6 in human HT-1080 cells transfected with pLV-UBC-N-HiBiT- BCL6-PGK-puro assessed as degradation of BCL6 incubated for 5 hrs by luminescence based NANO-Glo HIBiT lytic detection assay; format: cell-based
# [2] = biological target: Protein cereblon/B-cell lymphoma 6 protein (Homo sapiens) (UniProt Q96SW2+P41182); assay: PROTAC activity at CRBN/N-terminal HiBit-tagged BCL6 in human HT-1080 cells transfected with pLV-UBC-N-HiBiT- BCL6-PGK-puro assessed as degradation of BCL6 by measuring ratio of trough concentration of protein in cell compared to the concentration of protein before the cell contact with compound (Ymin) incubated for 5 hrs by luminescence based NANO-Glo HIBiT lytic detection assay relative to control
SMILES,EC50 [1],Emin [2]
CNC(=O)COc1cc2cc(Nc3nc(N4CCC5(CCN(CC6CCN(c7cc8c(cc7F)c(C7CCC(=O)NC7=O)nn8C)CC6)CC5)CC4)ncc3Cl)cnc2n(C)c1=O (configuration not stated),≤ 0.025 µM,< 30%
CNC(=O)COc1cc2cc(Nc3nc(N4CC[C@@H](CN5CCN(c6cccc7c(C8CCC(=O)NC8=O)nn(C)c67)CC5)[C@@H](C)C4)ncc3Cl)cc3c2n(c1=O)CCO3 (some centres not stated),≤ 0.025 µM,< 30%
CNC(=O)COc1cc2cc(Nc3nc(N4CCN(CC5CCN(c6ccc7c(C8CCC(=O)NC8=O)nn(C)c7c6)CC5(F)F)C(C)C4)ncc3Cl)cnc2n(C(C)C)c1=O (configuration not stated),≤ 0.025 µM,30%

# Now from value to compound:
EC50 [1],Emin [2],SMILES
≤ 0.025 µM,< 30%,CNC(=O)COc1cc2cc(Nc3nc(N4CCC(CN5CCC(c6ccc7c(C8CCC(=O)NC8=O)nn(C)c7c6F)CC5)CC4)ncc3Cl)cc3c2n(c1=O)[C@@H](C)CO3 (some centres not stated)
≤ 0.025 µM,< 30%,CNC(=O)COc1cc2cc(Nc3nc(N4CCC5(CC4)CCN([C@H](C)C4CCN(c6ccc7c(C8CCC(=O)NC8=O)nn(C)c7c6)CC4)CC5)ncc3Cl)cnc2n(C)c1=O (some centres not stated)
≤ 0.025 µM,< 30%,CNC(=O)COc1cc2cc(Nc3nc(N4CCN(CC5CCN(c6cccc7c(C8CCC(=O)NC8=O)nn(C)c67)CC5)CC4)ncc3Cl)cc3c2n(c1=O)CCO3 (configuration not stated)
